Experimental data taken from patent US4156731A, “Heterocyclic oxime compounds and carbamoyloxime derivatives” (priority 1976, dated 1979).

What was measured:
[1] = test system: two spotted mite (Tetranychus urticae Koch); assay: Mite Foliage Spray Test; format: in vivo; parameters: key: A: Excellent control; B: Partial control; C: No control; settings: 500 ppm foliage spray, six days
Description: (§1) Selected species of the new compounds were evaluated to determine their pesticidal activity against mites and certain insects, including anaphid, a caterpillar, a beetle and a fly.
(§2) Suspensions of the test compounds were prepared by dissolving one gram of compound in 50 milliliters of acetone in which had been dissolved 0.1 gram (10 percent of the weight of compound) of an alkylphenoxy polyethoxyethanol surfactant, as an emulsifying or dispersing agent. The resulting solution was mixed into 150 milliliters of water to give roughly 200 milliliters of a suspension containing the compound in finely divided form. The thus-prepared stock suspension contained 0.5 percent by weight of test compound. The test concentrations in parts per million by weight employed in the tests described hereinbelow were obtained by appropriate dilutions of the stock suspension with water. The test procedures were as follows:
Adults and nymphal stages of the two spotted mite (Tetranychus urticae Koch), reared on Tendergreen bean plants at 80±5 per cent relative humidity, were the test organisms. Infested leaves from a stock culture were placed on the primary leaves of two bean plants six to eight inches in height, growing in a two-and-a-half inch clay pot. 150-200 mites, a sufficient number for testing, transferred from the excised leaves to the fresh plants in a period of twenty four hours. Following the twenty four hour transfer period, the excised leaves were removed from the infested plants. The test compounds were formulated by diluting the stock suspension with water to give a suspension with water to give a suspension containing 500 parts of test compound per million parts of final formulation. The potted plants (one pot per compound) were placed on a revolving turntable and sprayed with 100-110 milliliters of test compound formulation by use of a DeVilbiss spray gun set at 40 psig. air pressure. This application, which lasted for 25 seconds, was sufficient to wet the plants to run-off. As a control, 100-110 milliliters of a water solution containing acetone and emulsifier in the same concentrations as the test compound formulation, but containing no test compound, were also sprayed on infested plants. The sprayed plants were held at 80±5 per cent relative humidity for six days, after which a mortality count of motile forms were made. Microscopic examination for motile forms was made on the leaves of the test plants. Any individual which was capable of locomotion upon prodding, was considered living.
(§3) In these tests the pesticidal activity of the compounds against aphid, mite, Southern Armyworm, Mexican Bean Beetle, and house fly was rated as follows: […]

[2] = test system: bean aphid (Aphis fabae Scop.); assay: Bean Aphid Foliage Spray Test; format: in vivo; parameters: key: A: Excellent control; B: Partial control; C: No control; settings: 500 ppm foliage spray, 24 hour holding period
Description: as §1, §2
Bean Aphid Foliage Spray Test
Adults and nymphal stages of the bean aphid (Aphis fabae Scop.) reared on potted dwarf nasturtium plants at 65°-70° F. and 50-70 per cent relative humidity, constituted the test insects. For testing purposes, the number of aphids per pot was standardized to 100-150 by trimming plants containing excess aphids.
The test compounds were formulated by diluting the stock suspension with water to give a suspension containing 500 parts of test compound per million parts of final formulation.
The potted plants (one pot per compound tested) infested with 100-150 aphids, were placed on a revolving turntable and sprayed with 100-110 milliliters of test compound formulation by use of a DeVilbiss spray gun set at 40 psig. air pressure. This application, which lasted 25 seconds, was sufficient to wet the plants to run-off. As a control, 100-110 milliliters of a water-acetone-emulsifier solution containing no test compound were also sprayed on infested plants. After spraying, the pots were placed on their sides on a sheet of white standard mimeograph paper which had been previously ruled to facilitate counting. Temperature and humidity in the test room during the 24 hour holding period were 65°-70° F. and 50-70 per cent, respectively. Aphids which fell into the paper and were unable to remain standing after being uprighted were considered dead. Aphids remaining on the plants wre observed closely for movement and those which were unable to move the length of the body upon stimulator by prodding were considered dead. Per cent mortality was recorded for various concentration levels.
as §3

[3] = Peroral toxicity to mammals (rat); settings: in vivo, po, mortality rate of 50 percent, read-out: A. O. Rat LD50
Description: Certain of these compositions were also evaluated to determine their peroral toxicity to mammals. The animal selected for this experiment was the rat.

[4] = test system: Mexican bean beetle (Epilachna varivestis, Muls.); assay: Mexican Bean Beetle Leaf Spray Test; format: in vivo; parameters: key: A: Excellent control; B: Partial control; C: No control; settings: fourth instar larvae, 500 ppm leaf spray, three days
Description: as §1, §2
Mexican Bean Beetle Leaf Spray Test
Fourth instar larvae of the Mexican bean beetle (Epilachna varivestis, Muls.), reared on Tendergreen bean plants at a temperature of 80°±5° F. and 50±5 per cent relative humidity, were the test insects.
The test compounds were formulated by diluting the stock suspension with water to give a suspension containing 500 parts of test compound per million parts of final formulation. Potted Tendergreen bean plants of standard height and age were placed on a revolving turntable and sprayed with 100-110 milliliters of test compound formulation by use of DeVilbiss spray gun set at 10 psig air pressure. This application, which lasted 25 seconds, was sufficient to wet plants to run-off. As a control, 100-110 milliliters of a water-acetone-emulsifier solution containing no test compound were also sprayed on infested plants. When dry, the paired leaves were separated and each was placed in a 9 centimeter Petri dish lined with moistened filter paper. Five randomly selected larvae were introduced into each dish, and the dishes were closed. The closed dishes were labeled and held at a temperature of […]. for three days. Although the larvae could easily consume the leaf within 24 to 48 hours, no more food was added. Larvae which were unable to move the length of the body, even upon stimulation, were considered dead.
as §3

[5] = test system: southern armyworm (Prodenia Eridania, (Cram.)); assay: Southern Armyworm Leaf Spray Test; format: in vivo; parameters: key: A: Excellent control; B: Partial control; C: No control; settings: larvae, 500 ppm leaf spray, three days
Description: as §1, §2
Southern Armyworm Leaf Spray Test
Larvae of the southern armyworm (Prodenia Eridania, (Cram.), reared on Tendergreen bean plants at a temperature of 80°±5° F. and a relative humidity of 50±5 per cent, constituted the test insects.
The test compounds were formulated by diluting the stock suspension with water to give a suspension containing 500 parts of test compound per million parts of final formulation. Potted Tendergreen bean plants of standard height and age were placed on a revolving turntable and sprayed with […] of test compound formulation by use of a DeVilbiss spray gun set at 10 psig. air pressure.
This application, which lasted 25 seconds, was sufficient to wet plants to run-off. As a control, 100-110 milliliters of a water-acetone-emulsifier solution containing no test compound were also sprayed on infested plants. When dry, the paired leaves were separated and each one was placed in a 9 centimeter Petric dish lined with moistened filter paper. Five randomly selected larvae were introduced into each dish and the dishes were closed. The closed dishes were labeled and held at 80°-85° F. for three days. Although the larvae could easily consume the whole leaf within twenty-four hours, no more food was added. Larvae which were unable to move the length of the body, even upon stimulation by prodding, were considered dead. Per cent mortality was recorded for various concentration levels.
as §3

[6] = test system: house flies (Musca domestica, L.); assay: Fly Bait Test; format: in vivo; parameters: key: A: Excellent control; B: Partial control; C: No control; settings: adults, 500 ppm in sugar bait, twenty four hours
Description: as §1, §2
Four to six day old adult house flies (Musca domestica, L.) reared according to the specifications of the Chemical Specialities Manufacturing Association (Blue Book, McNair-Dorland Co., NY., 1954; pages 234-244, 261) under controlled conditions of 80°±5° F. and 50±5 per cent relative humidity, were the test insects. The flies were immobilized by anesthetizing with carbon dioxide and twenty five immobilized individuals, males and females, were transferred to a cage consisting of a standard food stainer about five inches in diameter which was inverted over a wrapping-paper-covered surface. The test compounds were formulated by diluting the stock suspension with a 10 per cent (by weight) sugar solution to give a suspension containing 500 parts of test compound per million parts of final formulation, by weight. Ten milliliters of the test formulation were added to a souffle cup containing a one inch square of an absorbent cotton pad. This bait cup was introduced and centered on the blotting paper under the food strainer prior to admitting the anesthetized flies. The caged flies were allowed to feed on the bait for twenty four hours, at a temperature of 80°±5° F. and the relative humidity of 50±5 per cent.
as §3

SMILES: CNC(=O)ON=C1SC(=NC(C)(C)C)SC1(C)C [L]
- Mite pesticidal activity rating [1]: A
- Bean Aphid pesticidal activity rating [2]: A
- LD50 [3]: 31.5 mg/kg
- Mexican Bean Beetle pesticidal activity rating [4]: A
- Southern Armyworm pesticidal activity rating [5]: B
- House-Fly pesticidal activity rating [6]: A

SMILES: CC(C)N=C1SC(=NOC(=O)N(C)SC(Cl)(Cl)Cl)C(C)(C)S1 [XLVIII]
- Mite pesticidal activity rating [1]: A
- Bean Aphid pesticidal activity rating [2]: A
- LD50 [3]: 226 mg/kg
- Mexican Bean Beetle pesticidal activity rating [4]: A
- Southern Armyworm pesticidal activity rating [5]: C
- House-Fly pesticidal activity rating [6]: A

SMILES: CC(C)N=C1SC(=NOC(=O)N(C)SN(C)C(=O)ON=C2SC(=NC(C)C)SC2(C)C)C(C)(C)S1 [XLIV, N,N'-Bis-[[5,5-Dimethyl-2-isopropylimino-4-[O-(N-methylcarbamoyl)oximino]-1,3-dithiolane]] sulfide]
- Mite pesticidal activity rating [1]: C
- Bean Aphid pesticidal activity rating [2]: B
- LD50 [3]: 113 mg/kg
- Mexican Bean Beetle pesticidal activity rating [4]: A
- Southern Armyworm pesticidal activity rating [5]: C
- House-Fly pesticidal activity rating [6]: B

SMILES: CN(SC(Cl)(Cl)Cl)C(=O)ON=C1SC(=C(C#N)C#N)SC1(C)C [LXIII]
- Mite pesticidal activity rating [1]: C
- Bean Aphid pesticidal activity rating [2]: A
- LD50 [3]: 538 mg/kg
- Mexican Bean Beetle pesticidal activity rating [4]: A
- Southern Armyworm pesticidal activity rating [5]: C
- House-Fly pesticidal activity rating [6]: C

SMILES: CCN=C1SC(=NOC(=O)NC)C(C)(C)S1 [XLVI]
- Mite pesticidal activity rating [1]: C
- Bean Aphid pesticidal activity rating [2]: A
- LD50 [3]: 6.3 mg/kg
- Mexican Bean Beetle pesticidal activity rating [4]: A
- Southern Armyworm pesticidal activity rating [5]: B
- House-Fly pesticidal activity rating [6]: A

SMILES: CNC(=O)ON=C1SC(=NC(C)C)SC1(C)C [XLVII]
- Mite pesticidal activity rating [1]: A
- Bean Aphid pesticidal activity rating [2]: A
- LD50 [3]: 8.9 mg/kg
- Mexican Bean Beetle pesticidal activity rating [4]: A
- Southern Armyworm pesticidal activity rating [5]: C
- House-Fly pesticidal activity rating [6]: A

SMILES: CNC(=O)ON=C1SC(=NC2CCCCC2)SC1(C)C [LIV]
- Mite pesticidal activity rating [1]: B
- Bean Aphid pesticidal activity rating [2]: A
- Mexican Bean Beetle pesticidal activity rating [4]: B
- Southern Armyworm pesticidal activity rating [5]: C
- House-Fly pesticidal activity rating [6]: A

SMILES: CNC(=O)ON=C1SC(=NC#N)SC1(C)C [LXIX]
- Mite pesticidal activity rating [1]: C
- Bean Aphid pesticidal activity rating [2]: C
- Mexican Bean Beetle pesticidal activity rating [4]: C
- Southern Armyworm pesticidal activity rating [5]: C
- House-Fly pesticidal activity rating [6]: C

SMILES: CN(SC(Cl)(Cl)Cl)C(=O)ON=C1SC(=NC#N)SC1(C)C [LXX]
- Mite pesticidal activity rating [1]: C
- Bean Aphid pesticidal activity rating [2]: C
- Mexican Bean Beetle pesticidal activity rating [4]: C
- Southern Armyworm pesticidal activity rating [5]: C
- House-Fly pesticidal activity rating [6]: C

SMILES: CNC(=O)ON=C1SC(=NN(C)C)SC1(C)C [LV]
- Mite pesticidal activity rating [1]: A
- Bean Aphid pesticidal activity rating [2]: A
- LD50 [3]: 1.8 mg/kg
- Mexican Bean Beetle pesticidal activity rating [4]: A
- Southern Armyworm pesticidal activity rating [5]: A
- House-Fly pesticidal activity rating [6]: A

SMILES: CNC(=O)ON=C1SC(=NS(C)(=O)=O)SC1(C)C [LVII]
- Mite pesticidal activity rating [1]: C
- Bean Aphid pesticidal activity rating [2]: B
- Mexican Bean Beetle pesticidal activity rating [4]: B
- Southern Armyworm pesticidal activity rating [5]: B
- House-Fly pesticidal activity rating [6]: B

SMILES: CCOC(=O)C(C#N)=C1SC(=NOC(=O)N(C)SC(Cl)(Cl)Cl)C(C)(C)S1 [LXV]
- Mite pesticidal activity rating [1]: C
- Bean Aphid pesticidal activity rating [2]: B
- Mexican Bean Beetle pesticidal activity rating [4]: A
- Southern Armyworm pesticidal activity rating [5]: C
- House-Fly pesticidal activity rating [6]: A
